Experimental data from patent US8987321B2, “Lisofylline analogs and methods for use” (University of Virginia Patent Foundation, priority 2005, dated 2015).

Tests used:
rCYP 2D6 = rCYP 2D6 (Homo sapiens, UniProt P10635); assay: rCYP450 inhibition, 2D6; assay type: in vitro ADME; set-up: concentration or dose not given beside the values
Description: (§1) Further evaluations were performed for some of the LSF analogs in MDS assays, solubility, oral bioavailability, and stability (see Table 1). Analogs having greater than 50% inhibitory activity were considered to have high activity; analogs having from 20-49% inhibitory activity were considered to have medium activity; and analogs having less than 20 inhibitory activity were considered to have low activity

Metabolic stability = assay type: in vitro ADME
Description: (§2) Further evaluations were performed for some of the LSF analogs in MDS assays, solubility, oral bioavailability, and stability (see Table 1).

rCYP 2C9 = rCYP 2C9 (Homo sapiens, UniProt P11712); assay: rCYP450 inhibition, 2C9; assay type: in vitro ADME; set-up: concentration or dose not given beside the values
Chain of rCYP 2C9 (P11712 whole entry): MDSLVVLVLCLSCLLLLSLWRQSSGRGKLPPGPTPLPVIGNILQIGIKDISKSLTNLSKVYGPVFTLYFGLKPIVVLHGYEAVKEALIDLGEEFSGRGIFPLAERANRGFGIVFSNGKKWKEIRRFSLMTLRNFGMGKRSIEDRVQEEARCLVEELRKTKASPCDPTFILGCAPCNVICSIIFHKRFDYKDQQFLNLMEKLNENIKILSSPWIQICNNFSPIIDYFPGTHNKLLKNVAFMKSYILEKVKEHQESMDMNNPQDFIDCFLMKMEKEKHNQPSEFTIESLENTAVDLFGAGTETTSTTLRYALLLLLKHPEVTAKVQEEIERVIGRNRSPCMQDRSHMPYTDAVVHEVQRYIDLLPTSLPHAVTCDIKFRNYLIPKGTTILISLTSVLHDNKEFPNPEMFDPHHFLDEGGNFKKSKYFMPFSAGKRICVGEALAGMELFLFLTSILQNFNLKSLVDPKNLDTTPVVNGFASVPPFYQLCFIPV
Description: as §1

rCYP 1A2 = biological target: T1, rCYP 1A2 (Homo sapiens, UniProt P05177); assay: rCYP450 inhibition, 1A2; assay type: in vitro ADME; set-up: concentration or dose not given beside the values
T1 sequence (P05177 1-516): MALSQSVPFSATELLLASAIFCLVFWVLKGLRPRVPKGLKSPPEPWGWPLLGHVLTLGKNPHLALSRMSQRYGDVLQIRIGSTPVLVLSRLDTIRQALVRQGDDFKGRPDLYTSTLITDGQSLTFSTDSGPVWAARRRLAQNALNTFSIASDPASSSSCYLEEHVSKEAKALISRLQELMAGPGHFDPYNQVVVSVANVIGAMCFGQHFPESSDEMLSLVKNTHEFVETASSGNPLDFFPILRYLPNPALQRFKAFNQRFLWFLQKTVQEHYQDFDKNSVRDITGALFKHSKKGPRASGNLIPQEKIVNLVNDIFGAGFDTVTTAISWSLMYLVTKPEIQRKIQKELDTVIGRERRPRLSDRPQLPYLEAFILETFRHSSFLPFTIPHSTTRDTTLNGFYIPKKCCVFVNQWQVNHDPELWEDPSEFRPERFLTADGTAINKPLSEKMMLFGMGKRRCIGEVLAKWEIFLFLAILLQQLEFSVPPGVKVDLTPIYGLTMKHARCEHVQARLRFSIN
Description: as §1

rCYP 2C19 = rCYP 2C19 (Homo sapiens, UniProt P33261); assay: rCYP450 inhibition, 2C19; assay type: in vitro ADME; set-up: concentration or dose not given beside the values
Chain of rCYP 2C19 (P33261 whole entry): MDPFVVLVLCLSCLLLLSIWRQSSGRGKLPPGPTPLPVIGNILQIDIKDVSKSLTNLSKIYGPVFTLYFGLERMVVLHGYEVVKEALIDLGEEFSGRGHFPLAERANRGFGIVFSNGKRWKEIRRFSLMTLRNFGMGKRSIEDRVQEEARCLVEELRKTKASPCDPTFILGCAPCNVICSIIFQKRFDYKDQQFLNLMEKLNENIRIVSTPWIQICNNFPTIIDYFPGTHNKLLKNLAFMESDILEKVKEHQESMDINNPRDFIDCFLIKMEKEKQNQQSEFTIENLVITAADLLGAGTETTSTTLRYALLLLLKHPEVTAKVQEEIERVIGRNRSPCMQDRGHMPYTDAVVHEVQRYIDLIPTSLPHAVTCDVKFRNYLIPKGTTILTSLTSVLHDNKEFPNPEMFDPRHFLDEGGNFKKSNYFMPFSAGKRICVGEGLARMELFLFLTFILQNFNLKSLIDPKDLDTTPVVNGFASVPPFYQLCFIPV
Description: as §1

rCYP 3A4 = rCYP 3A4 (Homo sapiens, UniProt P08684); assay: rCYP450 inhibition, 3A4; assay type: in vitro ADME; set-up: concentration or dose not given beside the values
Chain of rCYP 3A4 (P08684 whole entry): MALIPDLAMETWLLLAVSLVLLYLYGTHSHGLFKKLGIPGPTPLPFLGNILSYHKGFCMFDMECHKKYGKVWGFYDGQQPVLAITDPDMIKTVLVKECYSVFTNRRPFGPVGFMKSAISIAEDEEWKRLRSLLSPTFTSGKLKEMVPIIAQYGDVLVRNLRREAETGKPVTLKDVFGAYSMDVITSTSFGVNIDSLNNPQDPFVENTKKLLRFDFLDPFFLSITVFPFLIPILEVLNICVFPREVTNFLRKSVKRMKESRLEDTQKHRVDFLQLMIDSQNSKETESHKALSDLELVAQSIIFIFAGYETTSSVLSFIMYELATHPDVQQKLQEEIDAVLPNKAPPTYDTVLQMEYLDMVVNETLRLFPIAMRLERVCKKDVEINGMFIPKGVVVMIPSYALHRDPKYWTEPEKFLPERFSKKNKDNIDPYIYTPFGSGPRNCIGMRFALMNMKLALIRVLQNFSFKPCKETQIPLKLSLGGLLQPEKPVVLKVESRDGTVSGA
Description: as §1

Solubility = assay type: physicochemical; conditions: in words
Description: as §2

human islets [1] = assay: Insulin secretion in human islets exposed to cytokines; assay type: cell-based; conditions: human islet, in the presence of inflammatory cytokines
Description: (§3) Four compounds (CPW7, CPW8, CPW11, and CPW12) were also evaluated on human islets for the induction of insulin secretion, intracellular ATP concentrations and the effect of reducing cell death exposed to cytokines (combination of human IL-1β, IFN-γ, and TNF-α). The results are illustrated FIGS. 7A-7D.

human islets [2] = assay: Intracellular ATP concentrations (mitochondrial function) in human islets; assay type: cell-based; conditions: human β-cells
Description: as §3

mouse-origin β-TC6 cells [3] = assay: β-cell apoptosis protection after inflammatory cytokines, pancreatic β cell lines; assay type: cell-based; conditions: mouse islet cell line
Description: (§4) The disclosed analogs (CPW1-15) were evaluated in pancreatic β cell lines for apoptosis protection after treatment with inflammatory cytokines (reflected by reduced OD450) and insulin-release (see FIGS. 5 and 6).
The β-TC6 cell line is maintained in RPMI 1640 medium (Life Technologies, Rockville, Md.) supplemented with 10% heat inactivated fetal bovine serum, 10 mM HEPES, […] L-glutamine, 50 units/ml penicillin and 50 μg/ml streptomycin at pH 7.4. The cells are cultured in a 37° C., humidified incubator supplied with 5% carbon dioxide. Fresh media is replaced every two days. Unless otherwise stated, the cells are plated at a density of 10^5/cm^2. Culture vessels (dishes and chamber slides) used for experiments were coated with poly-D-lysine and gelatin (Sigma, St. Louis, Mo.) to retain detached and dead cells so that seeding cell numbers reflect the actual cell numbers after all treatment conditions.
β-TC6 cells are treated with vehicle alone or with the combination of recombinant mouse IL-1β (5 ng/ml), IFN-γ (100 ng/ml) and TNF-α (10 ng/ml) (R&D Systems, Minneapolis, Minn.) suspended in complete RPMI medium. LSF (Cell Therapeutics, Inc. Seattle, Wash.) or the analogs are added simultaneously with the cytokines in complete RPMI medium in the concentrations ranging 1 nM-[…]. All treatments are conducted for 18 hours. The results are illustrated in FIGS. 5A-8P.

Caco-2 = Caco-2 permeability test; assay type: in vitro ADME
INS-1 cells [4] = assay: Protection of INS-1 cells from cytokine-induced cell death; assay type: cell-based, rat
Description: The effects of LSF analogs on β-cells in the […] insulin-secreting INS-1 cell line were investigated. Cells were maintained in RPMI 1640 medium (Life Technologies, Inc., Gaithersburg, Md.) supplemented with 10% heat-inactivated FBS, 10 mm HEPES, 200 μm L-glutamine, 1 mm sodium pyruvate, […] 2-mercaptoethanol, 50 U/ml penicillin, and 50 μg/ml streptomycin at pH 7.4. The cells were cultured at 37° C. in a humidified incubator supplied with 5% carbon dioxide. Fresh medium was replaced every 2 days. The cells were plated at a density of […]. Culture vessels were coated with poly-D-lysine and gelatin (Sigma, St. Louis, Mo.) to retain detached and dead cells so that seeding cell numbers reflect the actual cell numbers after all treatment conditions. INS-1 cells were treated with the combination of recombinant mouse IL-1β (5 ng/ml), IFNγ (100 ng/ml), and TNFα (10 ng/ml; R&D Systems, Inc., Minneapolis, Minn.) suspended in complete RPMI medium. LSF (provided by Cell Therapeutics, Inc., Seattle, Wash.) and analogs were added simultaneously with the cytokines in complete RPMI medium. All treatments were performed for 18 hours.
INS-1 cells were treated with a combination of recombinant IL-1β, INFγ, and TNFα with 10^−5-10^3 μM LSF and its analogs. […] There was no further increase in β-cell protection when the LSF concentration was increased from 10^−2 to 10^2 μM. […] No further increases in β-cell protection were observed when analog concentrations were increased.
The effects of LSF analogs on insulin secretion in INS-1 cells with and without inflammatory cytokines. β-Cells were treated with apoptosis detecting dye for 2-3 hours at room temperature. Apoptotic cells were recognized with purple-red color under a microscope. After washing to eliminate free dye and adding dye release reagent, color density was quantified by reading at OD 450 nm. […] Insulin secreted into the supernatant was measured by RIA with mouse insulin as a standard. […]

human islets [5] = assay: Cell death of human islets exposed to cytokines; assay type: cell-based; conditions: human β-cells
Description: as §3

cytochrome p450 = cytochrome p450 inhibition, overall statement; assay type: in vitro ADME
Text: Analogs having greater than 50% inhibitory activity were considered to have high activity; analogs having from 20-49% inhibitory activity were considered to have medium activity; and analogs having less than 20 inhibitory activity were considered to have low activity

mouse-origin β-TC6 cells [6] = assay: Insulin release, pancreatic β cell lines; assay type: cell-based; conditions: mouse islet cell line
Description: as §4
At the end of treatment, cells are washed with Krebs-Ringer-bicarbonate-HEPES buffer (KR13) containing in mM: 134 NaCl, 4.7 KCl, 1.2 KH2P04, 1.2 MgS04, 1.0 CaCI2, 10 HEPES, and 0.1% bovine serum albumin at 37° C., at a pH of 7.4. The cells are pre incubated in the same buffer for 30 min followed by 60-min incubation in KRB supplemented with 15 mM D-glucose (J. T. Baker, Phillisburg, N.J.). The supernatant is harvested and subjected to centrifugation to eliminate residue cells. Insulin secreted into the supernatant is measured using EIA with mouse insulin as a standard. The results are illustrated in FIGS. 9A-9P.

[7] = cited from earlier work
β-cells = conditions: maintains insulin secretory capability and cell viability; cited from earlier work
INS-1 cells [8] = assay: Insulin secretion in INS-1 cells; assay type: cell-based, rat; conditions: 20 μM
Description: The effects of LSF analogs on insulin secretion in INS-1 cells with and without inflammatory cytokines. β-Cells were treated with apoptosis detecting dye for 2-3 hours at room temperature. Apoptotic cells were recognized with purple-red color under a microscope. After washing to eliminate free dye and adding dye release reagent, color density was quantified by reading at OD 450 nm. At the end of treatment, cells were washed with Krebs-Ringer-bicarbonate-HEPES buffer (KRB) containing 134 mm NaCl, 4.7 mm KCl, 1.2 mm KH2PO4, 1.2 mm MgSO4, 1.0 mm CaCl2, 10 mm HEPES, and 0.1% BSA at 37° C., pH 7.4. The cells were preincubated in the same buffer for 30 min, followed by 60-min incubation in KRB supplemented with 15 mM D-glucose (J. T. Baker, Phillipsburg, N.J.). The supernatant was harvested and subjected to centrifugation to eliminate residue cells. Insulin secreted into the supernatant was measured by RIA with mouse insulin as a standard. The cells are maintained in basal (3 mM) and glucose-stimulated (28 mM). […] Insulin secretion in INS-1 cells: (a) LSF, (b) compound CPW11, and (c) compound CPW12. […]

[9] = system: non-obese diabetic (NOD) mouse; conditions: cited from earlier work

Chain of rCYP 2D6 (P10635 whole entry): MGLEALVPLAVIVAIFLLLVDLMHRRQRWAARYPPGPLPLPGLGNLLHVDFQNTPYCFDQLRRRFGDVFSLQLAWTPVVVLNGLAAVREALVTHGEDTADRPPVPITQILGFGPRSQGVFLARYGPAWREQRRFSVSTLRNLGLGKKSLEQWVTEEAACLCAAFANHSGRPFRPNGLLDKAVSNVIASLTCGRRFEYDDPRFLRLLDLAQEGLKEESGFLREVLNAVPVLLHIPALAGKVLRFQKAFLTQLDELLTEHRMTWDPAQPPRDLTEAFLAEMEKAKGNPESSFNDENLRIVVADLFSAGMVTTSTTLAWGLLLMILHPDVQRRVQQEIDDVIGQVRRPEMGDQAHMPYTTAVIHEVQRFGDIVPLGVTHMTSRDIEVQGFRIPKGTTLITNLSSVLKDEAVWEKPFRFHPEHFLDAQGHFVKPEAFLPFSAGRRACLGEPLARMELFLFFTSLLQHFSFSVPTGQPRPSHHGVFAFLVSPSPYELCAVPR

SMILES	rCYP % Inhibition 2D6 (rCYP 2D6) [%]	Metabolic Stability Percent Remaining (Metabolic stability) [%]	rCYP % Inhibition 2C9 (rCYP 2C9) [%]	rCYP % Inhibition 1A2 (rCYP 1A2) [%]	rCYP % Inhibition 2C19 (rCYP 2C19) [%]	rCYP % Inhibition 3A4 (rCYP 3A4) [%]	other results
CC(O)CCCCN1C(=O)C(C)N(CCCCC(C)O)C(=O)C1C (mixture of isomers) [CPW6]	16	77	3	13	14	14	
C[C@@H](O)CCCCn1ccc2cc(Br)ccc21 [CPW4]	50	0	38	56	94	32	
C[C@@H](O)CCCCOc1nn(CCCC[C@@H](C)O)c(=O)c2ccccc12 [CPW13]	−28	38	92	25	89	−159	
C[C@@H](O)CCCCN1c2ccccc2Oc2ccccc21 [CPW20]	73	19	86	95	98	50	
C[C@@H](O)CCCCn1c(=O)c2c(ncn2C)n(C)c1=O [LSF, 1-(5-R-hydroxyhexyl)-3,7-dimethylxanthine]							oral bioavailability [7]: not orally bioavailable; protection of β-cells from inflammatory cytokine-mediated injuries (β-cells): able to protect β-cells; insulin release (INS-1 cells [8]): Insulin release was observed; spontaneous Type 1 diabetes development [9]: significantly reduce; concentration of maximum protective effect (INS-1 cells [4]; IL-1β + IFNγ + TNFα, 18 hours): 10^−2 μM

The next lines start with results.

rCYP % Inhibition 2D6 (rCYP 2D6) [%]	Metabolic Stability Percent Remaining (Metabolic stability) [%]	rCYP % Inhibition 2C9 (rCYP 2C9) [%]	rCYP % Inhibition 1A2 (rCYP 1A2) [%]	rCYP % Inhibition 2C19 (rCYP 2C19) [%]	rCYP % Inhibition 3A4 (rCYP 3A4) [%]	SMILES	other results
80	0	86	58	99	57	CC(=O)O[C@H](C)CCCCn1ccc2cc(Br)ccc21 [CPW1]	
8		5	12	12	12	C[C@@H]([O-])CCCCN1C(=O)COc2ccccc21.[Na+] [CPW7]	
10	45	5	7	24	12	CC(=O)O[C@H](C)CCCCn1[nH]c(=O)n(-c2ccccc2)c1=O [CPW8]	
2	106	−12	5	1	−4	C[C@@H](O)CCCCn1[nH]c(=O)n(-c2ccccc2)c1=O [CPW9]	
12	75	30	18	30	4	C[C@@H](O)CCCCOc1n[nH]c(=O)c2ccccc12 [CPW12]	solubility (Solubility): acceptable; insulin secretion (human islets [1]): positive effects; stability (Metabolic stability; in words): acceptable; maintaining mitochondrial function (human islets [2]): beneficial effect; β-cell protection (mouse-origin β-TC6 cells [3]): positive effects; Caco-2 permeability test results (Caco-2): could be orally absorbed from the GI track; β-cell protective activity compared with LSF (INS-1 cells [4]; concentration of 10^−2 μM): comparative activity with LSF; protective effects on β-cells (INS-1 cells [4]; cytokine-induced cell death): effective at low concentrations; maintaining cell viability (human islets [5]): beneficial effect; cytochrome p450 inhibition (cytochrome p450): low (less than 20 inhibitory activity); insulin release (mouse-origin β-TC6 cells [6]): positive effects
